Test results taken from ChEMBL document CHEMBL1821658, “Synthesis, antimicrobial evaluation and QSAR analysis of novel nalidixic acid based 1,2,4-triazole derivatives” (2011).
Values after ≈ are worked out from the molar mass of the structure shown.

Key:
Type in all cases: functional
Bacillus subtilis = test: Antibacterial activity against Bacillus subtilis ATCC 12711 after 24 hrs by broth micro dilution assay; settings: ATCC 12711, 24 h
Pseudomonas aeruginosa = test: Antibacterial activity against Pseudomonas aeruginosa ATCC 9027 after 24 hrs by broth micro dilution assay; settings: ATCC 9027, 24 h
Staphylococcus aureus = test: Antibacterial activity against Staphylococcus aureus ATCC 2937 after 24 hrs by broth micro dilution assay; settings: ATCC 2937, 24 h
Aspergillus niger = test: Antifungal activity against Aspergillus niger by food poison technique; settings: read-out: ED50 (the source's name)
Klebsiella pneumoniae = test: Antibacterial activity against Klebsiella pneumoniae ATCC 31488 after 24 hrs by broth micro dilution assay; settings: ATCC 31488, 24 h
Escherichia coli = test: Antibacterial activity against Escherichia coli ATCC 8739 after 24 hrs by broth micro dilution assay; settings: ATCC 8739, 24 h
Fusarium oxysporum = test: Antifungal activity against Fusarium oxysporum by food poison technique; settings: read-out: ED50 (the source's name)

SMILES | MIC90 (Bacillus subtilis) [µg/mL] | MIC90 (Pseudomonas aeruginosa) [µg/mL] | MIC90 (Staphylococcus aureus) [µg/mL] | EC50 (Aspergillus niger) [µg/mL] | MIC90 (Klebsiella pneumoniae) [µg/mL] | MIC90 (Escherichia coli) [µg/mL] | EC50 (Fusarium oxysporum) [µg/mL]
CCn1cc(-c2nnc(S)[nH]2)c(=O)c2ccc(C)nc21 | 31 (≈ 108 µM) | 125 (≈ 435 µM) | 63 (≈ 219 µM) | 76 (≈ 265 µM) | 63 (≈ 219 µM) | 63 (≈ 219 µM) | 111 (≈ 387 µM)
CCn1cc(-c2nnc(S)n2/N=C/c2ccc(F)cc2)c(=O)c2ccc(C)nc21 | 63 (≈ 154 µM) | 16 (≈ 39.2 µM) | 125 (≈ 306 µM) | 134 (≈ 327 µM) | 250 (≈ 612 µM) | 250 (≈ 612 µM) | 163 (≈ 400 µM)
CCn1cc(-c2nnc(S)n2/N=C/c2ccc(C(C)(C)C)cc2)c(=O)c2ccc(C)nc21 | 31 (≈ 69.4 µM) | 63 (≈ 141 µM) | 125 (≈ 280 µM) | 134 (≈ 299 µM) | 63 (≈ 141 µM) | 63 (≈ 141 µM) | 117 (≈ 262 µM)
O=C(O)c1cn(C2CC2)c2cc(N3CCNCC3)c(F)cc2c1=O [CIPROFLOXACIN] | 12.5 (≈ 37.7 µM) | 1.25 (≈ 3.77 µM) | 10 (≈ 30.2 µM) | – | 2.5 (≈ 7.54 µM) | 12.5 (≈ 37.7 µM) | –
CCn1cc(-c2nnc(S)n2/N=C/c2ccc(O)cc2)c(=O)c2ccc(C)nc21 | 125 (≈ 308 µM) | 63 (≈ 155 µM) | 125 (≈ 308 µM) | 549 (≈ 1350 µM) | 125 (≈ 308 µM) | 125 (≈ 308 µM) | 203 (≈ 500 µM)
CCn1cc(-c2nnc(S)n2/N=C/c2ccc([N+](=O)[O-])cc2)c(=O)c2ccc(C)nc21 | 125 (≈ 287 µM) | 63 (≈ 145 µM) | 125 (≈ 287 µM) | 149 (≈ 342 µM) | 63 (≈ 145 µM) | 125 (≈ 287 µM) | 100 (≈ 230 µM)
CCn1cc(-c2nnc(S)n2/N=C/c2ccc(SC)cc2)c(=O)c2ccc(C)nc21 | 125 (≈ 286 µM) | 63 (≈ 144 µM) | 250 (≈ 573 µM) | 251 (≈ 574 µM) | 63 (≈ 144 µM) | 250 (≈ 573 µM) | 104 (≈ 239 µM)
CCn1cc(-c2nnc3sc(-c4cccc(Cl)c4)nn23)c(=O)c2ccc(C)nc21 | 31 (≈ 73.3 µM) | 63 (≈ 149 µM) | 63 (≈ 149 µM) | 144 (≈ 342 µM) | 63 (≈ 149 µM) | 63 (≈ 149 µM) | 103 (≈ 243 µM)
CCn1cc(-c2nnc3sc(-c4cccc([N+](=O)[O-])c4)nn23)c(=O)c2ccc(C)nc21 | 125 (≈ 288 µM) | 63 (≈ 145 µM) | 125 (≈ 288 µM) | 71 (≈ 164 µM) | 125 (≈ 288 µM) | 125 (≈ 288 µM) | 148 (≈ 342 µM)
CCn1cc(-c2nnc3sc(-c4ccc(Cl)cc4)nn23)c(=O)c2ccc(C)nc21 | 63 (≈ 149 µM) | 125 (≈ 296 µM) | 63 (≈ 149 µM) | 514 (≈ 1210 µM) | 125 (≈ 296 µM) | 63 (≈ 149 µM) | 121 (≈ 287 µM)
CCn1cc(-c2nnc(S)n2/N=C/c2cccc([N+](=O)[O-])c2)c(=O)c2ccc(C)nc21 | 125 (≈ 287 µM) | 63 (≈ 145 µM) | 125 (≈ 287 µM) | 161 (≈ 369 µM) | 250 (≈ 574 µM) | 125 (≈ 287 µM) | 138 (≈ 317 µM)
CCn1cc(-c2nnc3sc(S)nn23)c(=O)c2ccc(C)nc21 | 125 (≈ 363 µM) | 31 (≈ 90 µM) | 250 (≈ 726 µM) | 92.7 (≈ 269 µM) | 63 (≈ 183 µM) | 63 (≈ 183 µM) | 267 (≈ 775 µM)
CCn1cc(-c2nnc(S)n2/N=C/c2ccc(C)cc2)c(=O)c2ccc(C)nc21 | 125 (≈ 309 µM) | 63 (≈ 156 µM) | 63 (≈ 156 µM) | 76.6 (≈ 189 µM) | 63 (≈ 156 µM) | 125 (≈ 309 µM) | 205 (≈ 507 µM)
CCn1cc(-c2nnc(S)n2/N=C/c2ccc(OC)cc2)c(=O)c2ccc(C)nc21 | 16 (≈ 38.1 µM) | 16 (≈ 38.1 µM) | 125 (≈ 297 µM) | 105 (≈ 249 µM) | 31 (≈ 73.7 µM) | 250 (≈ 595 µM) | 152 (≈ 362 µM)
CCn1cc(-c2nnc(S)n2/N=C/c2ccccc2)c(=O)c2ccc(C)nc21 | 250 (≈ 640 µM) | 16 (≈ 41 µM) | 250 (≈ 640 µM) | 77.7 (≈ 199 µM) | 16 (≈ 41 µM) | 16 (≈ 41 µM) | 78.2 (≈ 200 µM)
CCn1cc(-c2nnc(S)n2/N=C/c2ccc(Br)cc2)c(=O)c2ccc(C)nc21 | 250 (≈ 533 µM) | 62 (≈ 132 µM) | 125 (≈ 266 µM) | 144 (≈ 306 µM) | 250 (≈ 533 µM) | 250 (≈ 533 µM) | 107 (≈ 227 µM)
CCn1cc(-c2nnc(S)n2/N=C/c2ccc(N(C)C)cc2)c(=O)c2ccc(C)nc21 | 16 (≈ 36.9 µM) | 16 (≈ 36.9 µM) | 125 (≈ 288 µM) | 101 (≈ 233 µM) | 63 (≈ 145 µM) | 63 (≈ 145 µM) | 104 (≈ 239 µM)
CCn1cc(-c2nnc3sc(-c4ccccc4Cl)nn23)c(=O)c2ccc(C)nc21 | 16 (≈ 37.8 µM) | 16 (≈ 37.8 µM) | 16 (≈ 37.8 µM) | 75.5 (≈ 178 µM) | 16 (≈ 37.8 µM) | 16 (≈ 37.8 µM) | 86.6 (≈ 205 µM)
CCn1cc(-c2nnc(S)n2/N=C/c2c(Cl)cccc2Cl)c(=O)c2ccc(C)nc21 | 31 (≈ 67.5 µM) | 63 (≈ 137 µM) | 125 (≈ 272 µM) | 101 (≈ 221 µM) | 125 (≈ 272 µM) | 16 (≈ 34.8 µM) | 112 (≈ 245 µM)
CCn1cc(-c2nnc3n2N=C(c2ccccc2)CS3)c(=O)c2ccc(C)nc21 | 125 (≈ 311 µM) | 125 (≈ 311 µM) | 63 (≈ 157 µM) | 148 (≈ 369 µM) | 63 (≈ 157 µM) | 125 (≈ 311 µM) | 144 (≈ 359 µM)
CCn1cc(-c2nnc(S)n2NC(C)=O)c(=O)c2ccc(C)nc21 | 63 (≈ 183 µM) | 250 (≈ 726 µM) | 63 (≈ 183 µM) | 111 (≈ 322 µM) | 31 (≈ 90 µM) | 63 (≈ 183 µM) | 166 (≈ 481 µM)
CCn1cc(-c2nnc(S)n2/N=C/c2ccc(C#N)cc2)c(=O)c2ccc(C)nc21 | 63 (≈ 152 µM) | 63 (≈ 152 µM) | 63 (≈ 152 µM) | 156 (≈ 376 µM) | 63 (≈ 152 µM) | 125 (≈ 301 µM) | 177 (≈ 426 µM)
CN[C@@H]1[C@H](O[C@H]2[C@H](O[C@H]3[C@H](O)[C@@H](O)[C@H](N=C(N)N)[C@@H](O)[C@@H]3N=C(N)N)O[C@@H](C)[C@]2(O)C=O)O[C@@H](CO)[C@H](O)[C@H]1O [STREPTOMYCIN] | 5 (≈ 8.6 µM) | 4 (≈ 6.88 µM) | 15 (≈ 25.8 µM) | – | 2 (≈ 3.44 µM) | 13 (≈ 22.4 µM) | –
CCOc1ccc(/C=N/n2c(S)nnc2-c2cn(CC)c3nc(C)ccc3c2=O)cc1 | 63 (≈ 145 µM) | 63 (≈ 145 µM) | 125 (≈ 288 µM) | 86.6 (≈ 199 µM) | 63 (≈ 145 µM) | 125 (≈ 288 µM) | 89.3 (≈ 206 µM)
CCn1cc(-c2nnc(S)n2N)c(=O)c2ccc(C)nc21 | 63 (≈ 208 µM) | 63 (≈ 208 µM) | 63 (≈ 208 µM) | 567 (≈ 1880 µM) | 63 (≈ 208 µM) | 125 (≈ 413 µM) | 382 (≈ 1260 µM)
CCn1cc(-c2nnc3sc(-c4ccccc4)nn23)c(=O)c2ccc(C)nc21 | 125 (≈ 322 µM) | 63 (≈ 162 µM) | 63 (≈ 162 µM) | 79.6 (≈ 205 µM) | 125 (≈ 322 µM) | 63 (≈ 162 µM) | 103 (≈ 265 µM)
CCn1cc(-c2nnc(S)n2/N=C/c2cccc(Br)c2)c(=O)c2ccc(C)nc21 | 16 (≈ 34.1 µM) | 16 (≈ 34.1 µM) | 125 (≈ 266 µM) | 111 (≈ 237 µM) | 31 (≈ 66 µM) | 125 (≈ 266 µM) | 74.1 (≈ 158 µM)
CCn1cc(-c2nnc(S)n2/N=C/c2ccc(C(C)C)cc2)c(=O)c2ccc(C)nc21 | 16 (≈ 37 µM) | 16 (≈ 37 µM) | 63 (≈ 146 µM) | 113 (≈ 262 µM) | 125 (≈ 289 µM) | 250 (≈ 578 µM) | 106 (≈ 246 µM)
